Tests used:
Test in all cases: FFA sulfoconjugation assay (N6-MF-A formation with adenosine as scavenger)
Type in all cases: biochemical
rSult2a3 = target: T1, rSult2a3 (Rattus norvegicus, UniProt P22789)
T1 construct: made in house; host or cells: Salmonella typhimurium TA1538 (cytosolic fraction, enzyme not purified)
T1 sequence (P22789 2-284 limits assumed): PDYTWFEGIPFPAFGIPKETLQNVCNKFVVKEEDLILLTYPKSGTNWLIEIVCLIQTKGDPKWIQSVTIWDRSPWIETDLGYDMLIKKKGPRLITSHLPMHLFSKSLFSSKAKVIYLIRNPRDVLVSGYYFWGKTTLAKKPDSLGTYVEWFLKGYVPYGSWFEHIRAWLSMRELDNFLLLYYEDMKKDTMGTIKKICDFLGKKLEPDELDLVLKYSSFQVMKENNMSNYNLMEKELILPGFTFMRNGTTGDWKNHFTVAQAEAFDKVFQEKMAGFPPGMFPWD
Procedure, shortened: (§1)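 SULT-containing cytosols from transgenic S. typhimurium TA1538 were incubated with FFA and 10 mM adenosine as nucleophilic scavenger for 20 min at 37 °C. N6-MF-A adducts were quantified by isotope-dilution UPLC-MS/MS ([15N5]N6-MF-A internal standard). Adduct formed in SULT-deficient cytosol controls was subtracted.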

hSULT2B1b = target: T2, hSULT2B1b (Homo sapiens, UniProt O00204)
T2 construct: made in house; host or cells: Salmonella typhimurium TA1538 (cytosolic fraction, not purified)
T2 sequence (O00204 1-365): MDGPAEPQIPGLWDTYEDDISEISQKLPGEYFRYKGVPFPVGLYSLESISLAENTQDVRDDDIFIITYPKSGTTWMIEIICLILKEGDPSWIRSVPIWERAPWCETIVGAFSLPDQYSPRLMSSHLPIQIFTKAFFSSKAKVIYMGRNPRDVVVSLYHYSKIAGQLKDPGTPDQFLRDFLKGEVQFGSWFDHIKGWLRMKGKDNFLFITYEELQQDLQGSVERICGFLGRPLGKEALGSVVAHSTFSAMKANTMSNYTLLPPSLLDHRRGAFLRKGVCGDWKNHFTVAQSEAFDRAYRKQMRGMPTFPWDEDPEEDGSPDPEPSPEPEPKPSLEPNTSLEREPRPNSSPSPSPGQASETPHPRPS
Procedure, shortened: as §1

mSult2a2 = target: T3, mSult2a2 (Mus musculus, UniProt P50236)
T3 construct: made in house; host or cells: Salmonella typhimurium TA1538 (cytosolic fraction, enzyme not purified)
T3 sequence (P50236 1-285): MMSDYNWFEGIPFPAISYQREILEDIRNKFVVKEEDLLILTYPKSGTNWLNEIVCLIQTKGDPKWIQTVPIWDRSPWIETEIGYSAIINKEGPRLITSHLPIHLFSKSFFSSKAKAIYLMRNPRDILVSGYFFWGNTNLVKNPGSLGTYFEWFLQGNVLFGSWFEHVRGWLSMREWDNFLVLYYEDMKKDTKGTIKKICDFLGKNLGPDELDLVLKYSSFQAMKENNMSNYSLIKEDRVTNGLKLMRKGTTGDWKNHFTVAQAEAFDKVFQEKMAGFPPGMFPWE
Procedure, shortened: as §1

OCc1ccco1 [FFA, furfuryl alcohol]
Rate of N6-MF-A formation (rSult2a3; 0.1 mM FFA): 48.3 ± 1.3 fmol N ^6-MF-A/mg/min | Rate of N6-MF-A formation (rSult2a3; 1 mM FFA): 461 ± 8 fmol N ^6-MF-A/mg/min | Rate of N6-MF-A formation (rSult2a3; 10 mM FFA): 3,420 ± 30 fmol N ^6-MF-A/mg/min | Rate of N6-MF-A formation (hSULT2B1b; 0.1 mM FFA): <18 fmol N ^6-MF-A/mg/min | Rate of N6-MF-A formation (hSULT2B1b; 1 mM FFA): <20 fmol N ^6-MF-A/mg/min | Rate of N6-MF-A formation (hSULT2B1b; 10 mM FFA): <44 fmol N ^6-MF-A/mg/min | Rate of N6-MF-A formation (mSult2a2; 0.1 mM FFA): <18 fmol N ^6-MF-A/mg/min | Rate of N6-MF-A formation (mSult2a2; 1 mM FFA): <20 fmol N ^6-MF-A/mg/min | Rate of N6-MF-A formation (mSult2a2; 10 mM FFA): 216 ± 3 fmol N ^6-MF-A/mg/min
